The record followed here is patent US20240376097A1, “BCL-2 Inhibitor” (BeiGene Ltd., priority 2020, published 2024).

A short description of data set [1]: Metabolic Stability Study, liver microsome incubation (mouse). Type of data set: in vitro ADME. The settings on record: mouse liver microsomes 0.5 mg/mL, 1 μM compound, NADPH; for half-life at 1 μM: NA^# = very stable, beyond the detection limits, read-out: T1/2 (min) mouse; for microsomal CLint at 1 μM: read-out: CLint (μL × min^−1 × mg^−1) mouse. The procedure, abridged: (§1)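 Test compounds (1 μM) incubated at 37° C with 0.5 mg/mL liver microsomes plus NADPH regenerating system; samples quenched at 0, 30 and 60 min. Parent loss measured by LC-MS/MS, giving CLint and T1/2, with CLint normalised to microsomal protein concentration.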

In data set [2] the target is Recombinant human Bcl-2 protein (Homo sapiens (Human), UniProt P10415). The experiment in a line: Bcl-2 TR-FRET Assay. Type of data set: binding. The method in brief:
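TR-FRET read (337 nm excitation, 520/490 nm emission) after 1 h with 0.5 nM FITC-labeled Bak peptide and Tb-cryptate anti-6His antibody. Bcl-2 at 0.05 nM had been pre-incubated 0.5 h with compound. IC50 fitted by four-parameter logistic equation.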
For orientation: Time-resolved FRET reads energy transfer from a long-lived donor to a nearby acceptor.

For data set [3], the target named is recombinant human Bcl-2 D103Y protein (Homo sapiens (Human), UniProt P10415, D103Y). The experiment in a line: Bcl-2-D103Y Biochemical Assay (TR-FRET). Type of data set: binding. The settings on record: for IC50: TR-FRET, FITC labeled Bak peptide; for Ratio of Bcl-2 D103Y/Bcl-2 WT: ratio of IC50; for ratio of Bcl-2 D103Y/Bcl-2 wt, compared with F91b in WO2019210828: comparison in words. The method in brief:
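Compounds titrated against the Bcl-2 D103Y–ligand interaction; inhibition derived from the TR-FRET emission ratio 490 nm/520 nm after 337 nm excitation. Four-parameter logistic fitting gave IC50.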

Data set [4] is described as follows: Metabolic Stability Study, liver microsome incubation (human). Type of data set: in vitro ADME. The settings on record: human liver microsomes 0.5 mg/mL, 1 μM compound, NADPH; for half-life at 1 μM: NA^# = very stable, beyond the detection limits, read-out: T1/2 (min) Human; for microsomal CLint at 1 μM: read-out: CLint (μL × min^−1 × mg^−1) Human. The procedure, abridged: as §1
(Microsomes from liver hold many membrane-bound enzymes, among them those of drug oxidation.)

Where [5] appears, read: Bcl-2 wild type, TR-FRET, read-out: Biochemical assay (IC50, nM) Bcl-2 WT.
[6] abbreviates: wild type Bcl-2, unit inferred, read-out: Bcl-2 WT.

Read-outs that look alike come from different tables or passages of the source.

Chain of recombinant human Bcl-2 D103Y protein (P10415 whole entry D103Y): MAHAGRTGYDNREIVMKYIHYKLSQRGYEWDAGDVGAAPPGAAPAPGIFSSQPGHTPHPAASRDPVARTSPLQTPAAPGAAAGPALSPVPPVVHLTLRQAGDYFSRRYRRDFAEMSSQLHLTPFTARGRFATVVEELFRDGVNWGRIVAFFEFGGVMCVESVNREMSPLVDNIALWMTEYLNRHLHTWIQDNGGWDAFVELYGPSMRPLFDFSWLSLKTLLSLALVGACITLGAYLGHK
Chain of Recombinant human Bcl-2 protein (P10415 whole entry): as the sequence (P10415 whole entry D103Y) above, with Y103D counted along it

As for `CC(C)c1ccccc1[C@@H]1CN(Cc2cccc3c2OCCO3)CCN1C1CC2(CCN(c3ccc(C(=O)NS(=O)(=O)c4ccc(NC[C@H]5CC[C@](C)(O)CC5)c([N+](=O)[O-])c4)c(Oc4cnc5[nH]ccc5c4)c3)CC2)C1` [Example 79a, 2-((1H-pyrrolo[2,3-b]pyridin-5-yl)oxy)-4-(2-(R-4-((2,3-dihydrobenzo [b][1,4]dioxin-5-yl)methyl)-2-(2-isopropylphenyl)piperazin-1-yl)-7-azaspiro[3.5]nonan-7-yl)-N-((4-((((1r,4r)-4-hydroxy-4-methylcyclohexyl)methyl)amino)-3-nitrophenyl)sulfonyl)benzamide], the half-life at 1 μM in data set [1] was found to be 124 min; in data set [4], 253 min. Also, the microsomal CLint at 1 μM in data set [1] amounted to 11.2 µL/min/mg; in data set [4], 5.5 µL/min/mg. Moreover, the IC50 came out at 0.11 nM in data set [2] (setting [5]), 0.11 nM in data set [2] (setting [6]) and 0.2 nM in data set [3]. Also, the “Ratio of Bcl-2 D103Y/Bcl-2 WT” value in data set [3] was found to be 1.9.

Take `[2H]C([2H])([2H])Oc1ccc(CN2CCN(C3CC4(CCN(c5ccc(C(=O)NS(=O)(=O)c6ccc(NC[C@H]7CC[C@](C)(O)CC7)c([N+](=O)[O-])c6)c(Oc6cnc7[nH]cc(F)c7c6)c5)CC4)C3)[C@H](c3ccccc3C(C)C)C2)cc1OC([2H])([2H])[2H]` [Example 198, 4-(2-((R)-4-(3,4-bis(methoxy-d3)benzyl)-2-(2-isopropylphenyl)piperazin-1-yl)-7-azaspiro[3.5]nonan-7-yl)-2-((3-fluoro-1H-pyrrolo[2,3-b]pyridin-5-yl)oxy)-N-((4-((((1r,4r)-4-hydroxy-4-methylcyclohexyl)methyl)amino)-3-nitrophenyl)sulfonyl)benzamide]: the half-life at 1 μM came to 222 min in data set [1] and 247 min in data set [4]. Further, the microsomal CLint at 1 μM in data set [1] was found to be 6.3 µL/min/mg; in data set [4], 5.6 µL/min/mg. The IC50 was 0.072 nM in data set [2] (setting [5]), 0.072 nM in data set [2] (setting [6]) and 0.08 nM in data set [3]. The “Ratio of Bcl-2 D103Y/Bcl-2 WT” value in data set [3] was 1.1.

Turning to `COc1ccc(CN2CCN(C3CC4(CCN(c5ccc(C(=O)NS(=O)(=O)c6ccc(NC[C@H]7CC[C@](C)(O)CC7)c([N+](=O)[O-])c6)c(Oc6cnc7[nH]ccc7c6)c5)CC4)C3)C(c3ccccc3C(C)C)C2)cn1` (stereo partly shown) [Example 72, 2-((1H-pyrrolo[2,3-b]pyridin-5-yl)oxy)-N-((4-((((1r,4r)-4-hydroxy-4-methylcyclohexyl)methyl)amino)-3-nitrophenyl)sulfonyl)-4-(2-(2-(2-isopropylphenyl)-4-((6-methoxypyridin-3-yl)methyl)piperazin-1-yl)-7-azaspiro[3.5]nonan-7-yl)benzamide], the half-life at 1 μM in data set [1] came to 159 min; in data set [4] it was 491 min. Also, the figures for the microsomal CLint at 1 μM in data set [1] and in data set [4] were 8.7 µL/min/mg and 2.8 µL/min/mg, respectively. Also, the IC50 is 0.05 nM in data set [2] (setting [5]), 0.05 nM in data set [2] (setting [6]) and 0.08 nM in data set [3]. The “ratio of Bcl-2 D103Y/Bcl-2 wt, compared with F91b in WO2019210828” value in data set [3] is given as “significantly lower”. Besides, the “Ratio of Bcl-2 D103Y/Bcl-2 WT” value in data set [3] stood at 1.6.

For `CC(C)c1ccccc1C1CN(Cc2ccc(F)c(F)c2)CCN1C1CC2(CCN(c3ccc(C(=O)NS(=O)(=O)c4ccc(NC[C@H]5CC[C@](C)(O)CC5)c([N+](=O)[O-])c4)c(Oc4cnc5[nH]ccc5c4)c3)CC2)C1` (stereo partly shown) [Example 52, 2-((1H-pyrrolo[2,3-b]pyridin-5-yl)oxy)-4-(2-(4-(3,4-difluorobenzyl)-2-(2-isopropylphenyl)piperazin-1-yl)-7-azaspiro[3.5]nonan-7-yl)-N-((4-((((1r,4r)-4-hydroxy-4-methylcyclohexyl)methyl)amino)-3-nitrophenyl)sulfonyl)benzamide], the figures for the microsomal CLint at 1 μM in data set [1] and in data set [4] were under 1 µL/min/mg and 9.5 µL/min/mg, respectively. Moreover, the IC50 in data set [2] (setting [5]) came to 0.24 nM; in data set [2] (setting [6]) it was 0.24 nM; in data set [3], 0.61 nM. Moreover, in data set [3], the “Ratio of Bcl-2 D103Y/Bcl-2 WT” value is given as 2.5. Besides, the half-life at 1 μM in data set [4] was found to be 145 min.

As for `COc1ccc(CN2CCN(C3CC4(C3)CN(c3ccc(C(=O)NS(=O)(=O)c5ccc(NC[C@H]6CC[C@](C)(O)CC6)c([N+](=O)[O-])c5)c(Oc5cnc6[nH]cc(F)c6c5)c3)C4)[C@H](c3ccccc3C(C)C)C2)cc1OC` [Example 141a, 4-(6-((R)-4-(3,4-dimethoxybenzyl)-2-(2-isopropylphenyl)piperazin-1-yl)-2-azaspiro[3.3]heptan-2-yl)-2-((3-fluoro-1H-pyrrolo[2,3-b]pyridin-5-yl)oxy)-N-((4-((((1r,4r)-4-hydroxy-4-methylcyclohexyl)methyl)amino)-3-nitrophenyl)sulfonyl)benzamide], the half-life at 1 μM in data set [1] stood at 18100 min; in data set [4], 343 min. For the same molecule, the microsomal CLint at 1 μM in data set [1] is 0.07 µL/min/mg; in data set [4] it was 4 µL/min/mg. The IC50 in data set [2] (setting [5]) came out at 0.054 nM; in data set [2] (setting [6]), 0.054 nM; in data set [3], 0.072 nM. Moreover, the “ratio of Bcl-2 D103Y/Bcl-2 wt, compared with F91b in WO2019210828” value in data set [3] is recorded as “significantly lower”. Also, the “Ratio of Bcl-2 D103Y/Bcl-2 WT” value in data set [3] is given as 1.3.

As for `COc1ccc(CN2CCN(C3CC4(C3)CN(c3ccc(C(=O)NS(=O)(=O)c5ccc(NC[C@H]6CC[C@](C)(O)CC6)c([N+](=O)[O-])c5)c(Oc5cnc6[nH]ccc6c5)c3)C4)[C@H](c3ccccc3C(C)C)C2)cc1OC` [Example 145, 2-((1H-pyrrolo[2,3-b]pyridin-5-yl)oxy)-4-(6-((R)-4-(3,4-dimethoxybenzyl)-2-(2-isopropylphenyl)piperazin-1-yl)-2-azaspiro[3.3]heptan-2-yl)-N-((4-((((1r,4r)-4-hydroxy-4-methylcyclohexyl)methyl)amino)-3-nitrophenyl)sulfonyl)benzamide], the half-life at 1 μM stood at 196 min in data set [1] and 970 min in data set [4]. For the same molecule, the microsomal CLint at 1 μM in data set [1] worked out at 7.1 µL/min/mg; in data set [4] it was 1.4 µL/min/mg. Also, the IC50 worked out at 0.028 nM in data set [2] (setting [5]), 0.028 nM in data set [2] (setting [6]) and 0.045 nM in data set [3]. In data set [3], the “ratio of Bcl-2 D103Y/Bcl-2 wt, compared with F91b in WO2019210828” value was “significantly lower”. In data set [3], the “Ratio of Bcl-2 D103Y/Bcl-2 WT” value is reported as 1.6.

Consider `COc1ccc(CN2CCN(C3CC4(CCN(c5ccc(C(=O)NS(=O)(=O)c6ccc(NC[C@H]7CC[C@](C)(O)CC7)c([N+](=O)[O-])c6)c(Oc6cnc7[nH]cc(F)c7c6)c5)CC4)C3)[C@H](c3ccccc3C(C)C)C2)cc1OC` [Example 127, 4-(2-((R)-4-(3,4-dimethoxybenzyl)-2-(2-isopropylphenyl)piperazin-1-yl)-7-azaspiro[3.5]nonan-7-yl)-2-((3-fluoro-1H-pyrrolo[2,3-b]pyridin-5-yl)oxy)-N-((4-((((1r,4r)-4-hydroxy-4-methylcyclohexyl)methyl)amino)-3-nitrophenyl)sulfonyl)benzamide], for which, in data set [1], the half-life at 1 μM turned out to be 182 min and the microsomal CLint at 1 μM stood at 7.63 µL/min/mg. Besides, the IC50 in data set [2] (setting [5]) was 0.071 nM. Moreover, the IC50 in data set [2] (setting [6]) worked out at 0.1 nM. Also, in data set [3], the IC50 was found to be 0.11 nM; the “ratio of Bcl-2 D103Y/Bcl-2 wt, compared with F91b in WO2019210828” value is “significantly lower”; the “Ratio of Bcl-2 D103Y/Bcl-2 WT” value amounted to 1. Further, the microsomal CLint at 1 μM in data set [4] was under 1 µL/min/mg.
